IC50 data for 18 compounds are collected here from ChEMBL document CHEMBL1139300, “Identification of a small molecule beta-secretase inhibitor that binds without catalytic aspartate engagement” (Bioorg Med Chem Lett, 2009).

Sequence of Beta-secretase 1 (P56817 whole entry): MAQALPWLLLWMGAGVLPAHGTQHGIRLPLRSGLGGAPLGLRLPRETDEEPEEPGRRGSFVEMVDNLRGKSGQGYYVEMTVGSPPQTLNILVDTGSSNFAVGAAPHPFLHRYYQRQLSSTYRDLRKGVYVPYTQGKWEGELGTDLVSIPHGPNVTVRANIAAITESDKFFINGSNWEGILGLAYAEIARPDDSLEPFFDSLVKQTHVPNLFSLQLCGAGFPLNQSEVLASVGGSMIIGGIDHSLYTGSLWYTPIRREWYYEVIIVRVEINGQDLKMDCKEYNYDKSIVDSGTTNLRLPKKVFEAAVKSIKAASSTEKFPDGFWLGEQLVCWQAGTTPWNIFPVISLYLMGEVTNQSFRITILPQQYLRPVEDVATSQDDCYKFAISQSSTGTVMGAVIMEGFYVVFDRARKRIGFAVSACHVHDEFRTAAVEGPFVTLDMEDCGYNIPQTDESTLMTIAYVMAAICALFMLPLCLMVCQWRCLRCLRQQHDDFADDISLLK

The assay addresses Beta-secretase 1 (Homo sapiens, UniProt P56817). The experiment in a line: Inhibition of BACE1.
`CC(=O)Nc1cc(Nc2cc(-c3ccccc3)ncn2)ccc1C` returned an IC50 of over 600 µM.

Compound `O=[N+]([O-])c1cc(Nc2cc(-c3ccccc3)ncn2)ccc1Br` registered an IC50 of over 600 µM.

`CS(=O)(=O)Nc1cccc(Nc2cc(-c3ccccc3)ncn2)c1`: the IC50 was determined as 400 µM.

`CS(=O)(=O)Nc1cc(Nc2cc(-c3ccccc3)ncn2)ccc1Cl` yielded an IC50 of 16 µM.

As to `CS(=O)(=O)Nc1cc(Nc2cc(-c3ccccc3)ncn2)ccc1F`, inhibition was half-maximal at 110 µM (IC50). This IC50 lies about 6.9-fold higher than the previous one.

With `COc1ccc(Nc2cc(-c3ccccc3)ncn2)cc1NS(C)(=O)=O`, half-maximal inhibition (IC50) required 69 µM. Compared with the last compound, the IC50 is about 1.6-fold lower.

Regarding `Cc1ccc(Nc2cc(-c3ccccc3N(C)C)ncn2)cc1NS(C)(=O)=O`, half-maximal inhibition (IC50) was put at 317 µM.

`Nc1cc(Nc2cc(-c3ccccc3)ncn2)ccc1Br` yielded an IC50 of over 600 µM.

For `CS(=O)(=O)Nc1cc(Nc2cc(-c3ccccc3)ncn2)ccc1-c1ccccc1`, the IC50 is over 600 µM.

Regarding `Cc1ccc(Nc2cc(-c3ccc4c(c3)OCCO4)ncn2)cc1NS(C)(=O)=O`, 21 µM corresponded to half-maximal inhibition (IC50). This counts as double-digit micromolar.

The compound `C=CCc1ccc(Nc2cc(-c3ccccc3)ncn2)cc1NS(C)(=O)=O` yielded an IC50 of 570 µM. Against the preceding compound, the IC50 is about 27-fold higher.

On to `Cc1ccc(Nc2cc(-c3ccc(N(C)C)cc3)ncn2)cc1NS(C)(=O)=O`, for which the midpoint of inhibition, the IC50, lay at 15 µM.

`Cc1ccc(Nc2cc(-c3ccccc3C)ncn2)cc1NS(C)(=O)=O`: the IC50 amounted to 219 µM.

As for `Cc1ccc(Nc2cc(-c3ccccc3)ncn2)cc1NS(C)(=O)=O`, half-maximal inhibition (IC50) was put at 24 µM. Compared with the last compound, the IC50 is about 9.1-fold lower.

With `CS(=O)(=O)Nc1cc(Nc2cc(-c3ccccc3)ncn2)ccc1Br`, the IC50 came out at 30 µM.

The compound `Cc1ccc(Nc2cc(-c3ccc(CCCO)cc3)ncn2)cc1NS(C)(=O)=O` came in with an IC50 of 37 µM.

`Cc1ccc(Nc2cc(-c3ccccc3)ncn2)cc1N(C)S(C)(=O)=O` returned an IC50 of over 1600 µM.

`Cc1ccc(Nc2cc(-c3ccc(-c4ccccc4)cc3)ncn2)cc1NS(C)(=O)=O`: the half-maximal inhibitory concentration (IC50) was 19 µM.
